{P} = phosphate
Tests used:
[1] = test system: Cloudman S91 mouse melanoma cells; assay: Melanin content of Cloudman S91 melanoma cells; assay type: cell-based; conditions: for increase in melanin content: variations of the 9-mer, cells not given; for melanogenic activity: with 5′ phosphate, FIG. 18
Protocol: (§1) The induction of melanogenesis in Cloudman S91 mouse melanoma cells by a five-nucleotide oligomer CATAC (SEQ ID NO: 6) and a nine-nucleotide oligomer, GAGTATGAG (SEQ ID NO: 1) was examined. Duplicates of Cloudman S91 murine melanoma cells were incubated with either 100 μM oligo or an equal volume of diluent (H2O) for 5 days. The cells were then collected, counted, and an equal number of cells were pelleted for melanin analysis. […] Variations of this oligonucleotide were evaluated: a scrambled 9-mer (TAGGAGGAT; SEQ ID NO: 2) and two truncated versions, a 7-mer (AGTATGA; SEQ ID NO: 3) and second 5-mer (GTATG; SEQ ID NO: 4). […] The truncated versions (SEQ ID NOs: 3 and 4) were also active, inducing 640% and 670% increases, respectively.
Cultures of Cloudman S91 murine melanoma cells were treated for 5 days with SEQ ID NO: 1, SEQ ID NO: 6, pTpT as a positive control, or an equal volume of diluent as a negative control. […] SEQ ID NO: 6 produced a slight increase in melanin, to 165+/−77% of control levels. SEQ ID NO: 1 stimulated melanin content to an average of 600+/−260% of control levels.
pTpT, shown previously to stimulate pigmentation in these cells, was used as a reference treatment, and diluent alone was used as a negative control. After five days of treatment with the oligonucleotides, the cells were collected, counted, and an equal number of cells were pelleted for melanin analysis. […] SEQ ID NO: 5, representing the telomere over-hang sequence, also at 10 μM, increased the melanin level to 10 times that of control cells.
S91 cells were cultured in the presence of diluent alone, pTpT p9mer (SEQ ID NO: 1), p7mer (AGTATGA; SEQ ID NO: 7) or p5mer #2 (SEQ ID NO: 4). […] Both SEQ ID NOS: 4 and 7 stimulated a 7–8 fold increase in melanin.
S91 cells were cultured for 5 days in the presence of the thymidine dinucleotides or SEQ ID NO: 1 with or without a 5′ phosphate or diluent alone as a negative control.
Cultures of S91 mouse melanoma cells (100,000 cells/38 cm^2) were treated with 100 μM pTpT or phosphorothioate pTpT (pTspT) (FIG. 22) or 40 μM 11mer-1 or the phosphorothioate 11mer-1 (11mer-1-S) (FIG. 23) for 6 days and were then collected, counted and assayed for melanin content.
Duplicate cultures of S91 cells (100,000 cells/39 cm^2) were either sham-irradiated or irradiated with 5 mJ/cm^2 solar-simulated light from a 1 kW xenon arc solar-simulator (XMN 1000-21, Optical Radiation, Azuza, Calif.) metered at […] using a research radiometer (model IL1700A, International Light, Newburyport, Mass.). Two sham-irradiated plates were then supplemented with 100 μM pTspT and two irradiated cultures were similarly treated with pTspT. After one week, cells were collected, counted and analyzed for melanin content by dissolving the cell pellets in 1 N NaOH and measuring the optical density at […]. […] However, this response was blocked by the addition of pTspT (FIG. 24). In addition, the constitutive pigmentation of these cells was reduced by the pTspT in the sham-irradiated cultures, similar to the data presented in FIGS. 22 and 23.

[2] = test system: Human squamous carcinoma cell line SCC12F cells; assay: Cell growth / cell yield of SCC12F cells (Coulter counter); assay type: cell-based; conditions: after 2 days; FIG. 14
Protocol: Human squamous carcinoma cell line SCC12F cells were maintained in primary keratinocyte medium (300 ml DME, 100 ml F-12 nutrient supplement, 50 ml 10× adenine, 50 ml fetal bovine serum, 5 ml penicillin/streptomycin stock, and 0.5 ml of 10 μg/ml epidermal growth factor and hydrocortisone to final concentration of 1.4 μg/ml) and dosed with either water (diluent), 100 μM pTpT (T2, Midland Certified Reagent Company, Midland, Tex.) or 100 μM pdApdA (A2). Cells were harvested before dosing (day 0), and 1, 3, 4, and 5 days after dosage, and were counted by Coulter™ counter. After harvesting, the cells were processed for total RNA isolation and were analyzed by Northern blot. Addition of a control deoxyadenine dinucleotide (pdApdA), a compound very similar to pTpT but not readily dimerized by UV irradiation, and therefore rarely excised during the course of UV-induced DNA repair, has no effect.
In a second experiment, SCC12F cells were cultured as described above. Two or three days after seeding, the preconfluent cultures were given fresh medium supplemented with either 100 μM T2 or diluent as a control. Cells were collected daily by trypsinization and counted by Coulter™ counter. The cell yield in cultures treated with T2 was reduced by […] compared to that of paired control cultures after five days (FIG. 2). This corresponds to 2.3 population doublings in this time for control cells, compared with 1 doubling for T2-treated cells.
(§2) pTpT was previously found to inhibit cell cycle progression, at least in part through activation of p53 and subsequent upregulation of the cyclin dependent kinase inhibitor p21. Cultures of the human keratinocyte line SCC12F were treated with pTpT, SEQ ID NO: 1, SEQ ID NO: 6 or diluent alone as a negative control, collected and counted 48 hours later and processed for northern blot analysis of p21 mRNA expression. […] Thus, the sequences of the present invention activate p53 and inhibit cell proliferation similar to the effect of pTpT.
Exposure of keratinocytes to UVB irradiation affects the expression of genes involved in cell cycle arrest, DNA repair and cytokine production. Single-stranded oligonucleotides sharing sequence homology with the telomere 3′ overhang, when introduced into cells, mimic these UV effects. To identify other genes that may be similarly modulated, cells of keratinocyte origin (SCC12F; a human epidermal squamous cell carcinoma line provided by Dr. James Rheinwald of Harvard University) were exposed to solar simulated irradiation (SSR) (20 mJ/cm^2, measured at 285±5 nm), to an 11-base oligonucleotide (pGTTAGGGTTAG; SEQ ID NO:5) homologous to the telomere overhang (T-oligo), or to a complementary sequence as control [pCTAACCCTAAC; (SEQ ID NO:9) control oligonucleotide]. […] These are mitochondrial-transcribed genes whose encoded proteins participate in cellular respiration.

p21/Waf 1/Cip 1 gene = assay: p21 mRNA Northern blot in SCC12F cells; assay type: cell-based, human; conditions: 48 hours
Protocol: as §1, §2

S91 cells = assay: Cellular uptake of FAM-labeled oligonucleotides in S91 cells; assay type: in vitro ADME, mouse; conditions: 4 hours
Protocol: Fluorescein phosphoramidite (FAM) labeled oligonucleotides were added to cultures of S91 cells for 4 hours and the cells were then prepared for confocal microscopy. Nuclei, identified by staining with propidium iodide, appeared red and FAM-labeled oligonucleotides appeared green. Co-localization of red and green signals was assigned a yellow color by the computer. […] There was no change in the profile of oligonucleotide uptake after 6 and 24 hours.

Jurkat cells = assay: FACS cell cycle / apoptosis analysis of Jurkat cells; assay type: cell-based, human
Protocol: Oligonucleotides homologous to the telomere overhang repeat sequence (TTAGGG; SEQ ID NO:11), sequence (11mer-1: pGTTAGGGTTAG; SEQ ID NO: 5), complementary to this sequence (11mer-2: pCTAACCCTAAC; SEQ ID NO: 9) and unrelated to the telomere sequence (11mer-3: pGATCGATCGAT; SEQ ID NO: 10) were added to cultures of Jurkat cells, a line of human T cells, one of the cell types reported to undergo apoptosis in response to telomere disruption. Within 48 hours, 50% of the cells treated with 40 μM of SEQ ID NO: 5 had accumulated in the S phase, compared to 25–30% for control cells (p<0.0003, non-paired t-test; see FIGS. 19A–19D), and by 72 hours, 13% of these cells were apoptotic as determined by a sub-G0/G1 DNA content, compared to 2–3% of controls (p<0.007, non-paired t-test; see FIGS. 19E–19H). At 96 hours, 20±3% of the 11mer-1 treated cells were apoptotic compared with 3–5% of controls (p<0.0001, non-paired t-test). To exclude preferential uptake of the 11mer-1 as an explanation of its singular effects, Jurkat cells were treated with oligonucleotides labeled on the 3′ end with fluorescein phosphoramidite, then subjected to confocal microscopy and FACS analysis. The fluorescence intensity of the cells was the same after all treatments at 4 hours and 24 hours.
Three DNA oligonucleotides were designed initially: one homologous to the telomere overhang (11mer-1: pGTTAGGGTTAG; SEQ ID NO:5), one complementary to this sequence (11mer-2: pCTAACCCTAAC; SEQ ID NO:9) and one unrelated (11mer-3: pGATCGATCGAT; SEQ ID NO:10). For later experiments, additional 11 base oligonucleotides were designed: one a simple permutation of 11mer-1 (pGGGTTAGGGTT; SEQ ID NO:13), one with the same number of G residues but roughly 50% rather than 100% homology to the overhang (pTAGATGTGGTG; SEQ ID NO:14), and one with roughly 50% overhang homology but also containing cytosine bases (pCGGGCTTATTG; SEQ ID NO:15) (Midland Certified Reagent Company, Midland, Tex.). Cell Sources and Culture Human neonatal fibroblasts were established and cultured as previously described (Eller, M. S., et al., 1997, Proc Natl Acad Sci USA 94: 12627–12632). Fibroblasts from a Nijmegen breakage syndrome (NBS) patient (#GM07166) and an age-matched control (GM03399) were purchased from the NIGMS Human Cell Repository, Coriell Institute for Medical Research, Camden, N.J.) and cultured in DMEM/15% FBS. Saos-2 cells were purchased from the American Type Culture Collection (ATCC; Manassas, Va.). SCC12F cells were the kind gift of Dr. James Rheinwald, Harvard University. Cell Cycle Analysis The established line of human T lymphocytes, termed Jurkat cells (180,000 cells/ml) were plated in RPMI medium 1640 supplemented with 3% FBS (both from GIBCO/BRL, Gaithersburg, Md.). […] Cells were collected up to 96 hours after treatment, stained with propidium iodide and analyzed by FACS using a Becton-Dickinson FacsScan and CellQuest software. Caspase Activity
Oligonucleotides homologous to the 3′ overhang sequence (11mer-1: pGTTAGGGTTAG; SEQ ID NO:5), complementary to this sequence (11mer-2: pCTAACCCTAAC; SEQ ID NO:9) and unrelated to the telomere sequence (11mer-3: pGATCGATCGAT; SEQ ID NO:10) were synthesized. The three 11mer oligonucleotides were added to cultures of Jurkat cells, an established line of human T lymphocytes, a cell type reported to undergo apoptosis in response to telomere disruption [Karlseder, J., et al, (1999) Science 283, 1321–1325] and DNA damaging ionizing radiation (IR) [Vigorito, E., et al, (1999), Hematol Cell Ther 41, 153–161]. Duplicate cultures of Jurkat cells were treated with a final concentration of 40 μM 11mer-1, -2 or -3, oligonucleotides, or an equal volume of diluent (water) as a control. Cells were collected up to 96 hours after treatment, stained with propidium iodideandanalyzed by FACS. See also Example 13 and FIGS. 19A–19H.
To further confirm the specificity of these responses to the telomere overhang sequence, three variations were tested. […]

GTATG (DNA, phosphodiester; further chemistry not fully specified) [SEQ ID NO: 4]
increase in melanin content [1]: 670%

CATAC (DNA, phosphodiester; further chemistry not given here) [SEQ ID NO: 6]
reduction of cell number [2]: 25% | pigment content increase, of control levels ([1]; 100 μM, 5 days, three experiments): 61%±60% | melanin content, of control cells ([1]; 5 days, FIG. 12): 165+/−77% | increase in p21 mRNA level (p21/Waf 1/Cip 1 gene): 10–20%

pGCATGCATGCATTACGTACG (DNA, 5' {P}, backbone not given here) [SEQ ID NO: 8]
cellular uptake and localization (confocal microscopy, FACS) (S91 cells): pattern of fluorescence very similar to that seen with phosphorylated SEQ ID NO: 1 | pigmentation relative to control cells ([1]; FIG. 16): twice the level of control cells

pTspT
melanogenesis ([1]; 100 μM dinucleotides or 40 μM 11mers, 6 days): did not | constitutive pigmentation ([1]; 100 μM pTspT or 40 μM 11mer-1-S, 6 days or one week): reduced the constitutive pigmentation | UV-induced doubling of melanin content ([1]; 100 μM, 5 mJ/cm^2 solar-simulated light, one week): blocked

AGTATGA (DNA, phosphodiester; further chemistry not fully specified) [SEQ ID NO: 3]
increase in melanin content [1]: 640%

pCGGGCTTATTG (DNA, 5' {P}, backbone not given here) [SEQ ID NO:15, reference compound]
apoptosis and S-phase arrest (Jurkat cells; 10 μM): failed to induce apoptosis and only induced a moderate S-phase arrest | apoptotic cells by FACS analysis (Jurkat cells; 10 μM, 72 hours): 2% | apoptotic cells by FACS analysis (Jurkat cells; 10 μM, 96 hours): 2–4%

pGGGTTAGGGTT [SEQ ID NO:13]
apoptotic cells by FACS analysis (Jurkat cells; 10 μM, 72 hours): 13% | apoptotic cells by FACS analysis (Jurkat cells; 10 μM, 96 hours): 28% | activity of the two complete telomere overhang homologs (Jurkat cells; separate paired cultures): equal in activity

GAGTATGAG (DNA, phosphodiester; further chemistry not fully specified) [SEQ ID NO: 1 without 5′ phosphorylation]
cellular uptake and localization (confocal microscopy, FACS) (S91 cells): only moderate uptake

TTAGGG (Synthetic DNA Fragment) [SEQ ID NO: 11]
melanogenic activity [1]: highly melanogenic

CCCTAA (DNA, backbone not given here) [SEQ ID NO: 12]
melanogenic activity [1]: less active

TAGGAGGAT (DNA, phosphodiester; further chemistry not fully specified) [SEQ ID NO: 2]
increase in melanin content [1]: 800%

pTAGATGTGGTG (DNA, 5' {P}, backbone not given here) [SEQ ID NO:14]
apoptotic cells by FACS analysis (Jurkat cells; 10 μM, 72 hours): 10% | apoptotic cells by FACS analysis (Jurkat cells; 10 μM, 96 hours): 16%
